Test results from patent US12440544B2, “Cross-reactive epitope for multiple sclerosis” (The Board of Trustees of the Leland Stanford Junior …, priority 2019, dated 2025).

What was measured:
Assay type in all cases: cell-based, human
MS-1 TCR cell line = assay: T cell stimulation assay (CD69), MS1-TCR cell line co-cultured with peptide-loaded T2-DR15 antigen presenting cells; details: for self-peptide identified for TCR2/MS-1 TCR: predicted with positional mutation/refined substitution matrix data, used for MS-1 TCR stimulation
From the text: We generated MS1-TCR cell line, co-cultured with T2-DR15 antigen presenting cell line loaded with yeast library generated peptides and were examined for activation. CD69 was used as a marker for T cell activation. […] We used yeast library enrichment data to predict actual peptides/antigens (self or non-self) for MS-1 CD4 TCRs.
TCRα, β constructs were cloned into a lentiviral construct. For TCR expression, alpha and beta TCR lentiviral constructs were transfected into 293× cells separately. The virus was harvested after 72 hr of transfection and transduced into Jurkat αβ^−/− or SKW αβ^−/− cells. SKW or Jurkat cells were enriched for highest expression of TCRαβ by using a Miltenyi anti-APC selection (Miltenyi 130-090-855).
T cell stimulation assays were performed as previously described. All the T cell peptide stimulation experiments were done in 96 well round bottom plates with a 200 μl total volume. T2, K562 cells or BMDCs were pulsed with 10-100 ug of the peptides for 45 minutes, washed once and plated (10,000 cells/well). Cell lines expressing TCRs (100, 000 cells/well) were co-cultured with APCs for 18 hr. At the end of stimulation, cells were harvested, washed, and stained with TCRβ, human CD3, and CD69 and analyzed on LSR II (Becton Dickinson) for activation.

Adeno-TCR1 = assay: T cell stimulation of adeno-tetramer sorted CD4 TCR cell line, cross reactivity with MBP 85-99 peptide; details: adeno specific TCR cell line stimulated with Adeno peptide and MBP
From the text: (§1) To detect/determine adeno specific T cells directly from MS patients (n=9) and healthy (n=9), we generated pMHC tetramers, enriched, and enumerated CD4's that are specific to the adeno peptide. We were able to detect adeno specific CD4 T cells, which were higher in number among MS patients compared to HC. We also single cell sorted these adeno specific CD4 T cells, sequenced their TCRs, and generated TCR cell lines (adeno specific TCRs).
(§2) TCR cell lines from adeno-tetramer sorted CD4 TCRs were tested for cross reactivity with MBP 85-99 peptide. We also tested MS-1 TCR for cross reactivity with MBP. Adeno specific TCRs were stimulated with Adeno peptide and MBP. TCR2/ms-1 TCR and some of the adeno-TCRs (Adeno-TCR1 and 9) cross react with MBP peptide. Serum from MS (n=28) and HC (n=10) was tested for adeno virus titers in the serum. A subset of MS sera had higher adeno virus compared to HC sera. CD3+ T cells from 8 MS and 5 HCs were sorted, and TCR and RNA-seq performed using 10× platform. Additionally, for 4 out of 8 MS patients, T cells from cerebrospinal fluid were sequenced. […]
(§3) T cell stimulation assays were performed as previously described. […] At the end of stimulation, cells were harvested, washed, and stained with TCRβ, human CD3, and CD69 and analyzed on LSR II (Becton Dickinson) for activation.

Adeno-TCR9 = assay: as above; details: adeno specific TCR cell line stimulated with Adeno peptide and MBP
From the text: as §1, §2, §3

Sequence: ATFTSYRSWYLA [Adeno]
- stimulation of MS-1 TCR cell line (CD69 as marker for T cell activation) (MS-1 TCR cell line; co-cultured with T2-DR15 antigen presenting cell line loaded with peptide): stimulated MS-1 TCR cell line

Sequence: DKGQQYRNWFLK [SEQ ID NO:4]
- self-peptide identified for TCR2/MS-1 TCR (MS-1 TCR cell line): identified for TCR2/MS-1 TCR

Sequence: ENPVVHFFKNIVTPR [MBP peptide]
- cross reactivity of TCR2/MS-1 TCR with MBP peptide (MS-1 TCR cell line; TCR cell line stimulated with Adeno peptide and MBP): cross react
- cross reactivity of Adeno-TCR1 with MBP peptide (Adeno-TCR1): cross react
- cross reactivity of Adeno-TCR9 with MBP peptide (Adeno-TCR9): cross react

Sequence: IDRHMYHSYLK [SEQ ID NO:3]
- self-peptide identified for TCR2/MS-1 TCR (MS-1 TCR cell line): identified for TCR2/MS-1 TCR

Sequence: ANYGKARSWYLK [SEQ ID NO:2]
- self-peptide identified for TCR2/MS-1 TCR (MS-1 TCR cell line): identified for TCR2/MS-1 TCR
